Values quoted from earlier work as cited in patent US20030171329A1, “Stable compositions comprising tezacitabine” (priority 2002, published 2003).
Read-outs that look alike come from different tables or passages of the source.

What was measured:
[1] = cited from earlier work
ribonucleotide reductase = biological target: T1, ribonucleotide reductase (Homo sapiens, UniProt P23921); details: cited from earlier work
T1 sequence (P23921 1-792): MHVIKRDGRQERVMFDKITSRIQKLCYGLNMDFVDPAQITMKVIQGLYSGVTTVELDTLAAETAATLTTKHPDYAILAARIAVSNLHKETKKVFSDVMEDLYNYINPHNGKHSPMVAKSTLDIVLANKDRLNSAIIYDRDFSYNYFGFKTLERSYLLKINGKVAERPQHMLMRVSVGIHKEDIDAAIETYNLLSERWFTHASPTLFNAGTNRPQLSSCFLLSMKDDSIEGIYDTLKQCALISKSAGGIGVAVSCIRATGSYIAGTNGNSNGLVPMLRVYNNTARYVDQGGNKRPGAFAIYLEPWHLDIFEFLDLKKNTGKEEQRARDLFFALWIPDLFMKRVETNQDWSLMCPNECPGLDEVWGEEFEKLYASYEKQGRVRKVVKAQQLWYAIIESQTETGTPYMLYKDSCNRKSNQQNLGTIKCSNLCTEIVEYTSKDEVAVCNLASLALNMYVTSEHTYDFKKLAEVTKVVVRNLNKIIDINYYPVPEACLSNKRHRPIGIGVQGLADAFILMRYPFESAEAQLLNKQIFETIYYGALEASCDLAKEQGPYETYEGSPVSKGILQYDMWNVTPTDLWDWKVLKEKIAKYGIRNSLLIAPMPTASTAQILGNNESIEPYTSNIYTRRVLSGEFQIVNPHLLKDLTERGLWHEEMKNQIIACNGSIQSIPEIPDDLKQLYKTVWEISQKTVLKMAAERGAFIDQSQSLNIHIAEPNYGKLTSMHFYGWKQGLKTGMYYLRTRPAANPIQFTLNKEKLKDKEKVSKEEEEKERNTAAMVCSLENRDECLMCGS
T1 sequence (P31350 1-389 partner): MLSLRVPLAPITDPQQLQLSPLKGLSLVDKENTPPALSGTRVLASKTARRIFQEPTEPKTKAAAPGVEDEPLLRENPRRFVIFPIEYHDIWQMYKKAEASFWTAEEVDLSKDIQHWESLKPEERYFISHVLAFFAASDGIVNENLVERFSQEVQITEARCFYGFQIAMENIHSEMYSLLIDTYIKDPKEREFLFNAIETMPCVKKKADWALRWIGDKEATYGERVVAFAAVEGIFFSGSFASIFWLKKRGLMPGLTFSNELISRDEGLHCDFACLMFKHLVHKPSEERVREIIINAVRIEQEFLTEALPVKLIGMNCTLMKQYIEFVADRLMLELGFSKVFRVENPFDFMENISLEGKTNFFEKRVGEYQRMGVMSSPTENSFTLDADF

[2] = system: replicating strand of DNA; details: incorporated directly into the replicating strand of DNA; cited from earlier work

In the case of `Nc1ccn([C@@H]2O[C@H](CO)[C@@H](O)[C@@H]2O)c(=O)n1` [Cytarabine], the “pH of best stability” value ([1]; aqueous solution) is given as “most stable at neutral pH (7-8)”.

In the case of `Nc1ccn([C@@H]2O[C@H](CO)[C@@H](O)C2(F)F)c(=O)n1` [Gemcitabine], the stability in words ([1]; acid conditions (low pH)) is listed as “relatively stable” and the stability in words ([1]; high pH) is listed as “considerably less stable”.

In the case of `Nc1ccn(C2OC(COP(=O)(O)OP(=O)(O)O)C(O)C2=CF)c(=O)n1` (centres unmarked) [tezacitabine diphosphate], the “effect on ribonucleotide reductase” value (ribonucleotide reductase) is listed as “inhibits ribonucleotide reductase”.

In the case of `Nc1ccn(C2OC(COP(=O)(O)OP(=O)(O)OP(=O)(O)O)C(O)C2=CF)c(=O)n1` (centres unmarked) [tezacitabine triphosphate], the “effect on DNA synthesis” value [2] is given as “causes premature chain termination”.
